Test system: Spontaneously Hypertensive Rats (SHR)
Assay: In vivo test of anti-hypertensive properties: systolic blood pressure by plethysmography in conscious SHR after gavage
Set-up: species or system rat
Conditions: gavage 2 ml of product (Enalapril 20 mg/kg in milk)
Description: Strains were streaked on MRS agar and incubated anaerobically for 48 h at 37° C. A single colony was picked, inoculated into MRS broth and grown overnight at 37° C. Stock cultures were prepared from this overnight culture and were stored at −80° C. in 20% glycerol. The strains were precultivated in milk overnight and inoculated 1% (v/v) in fresh milk for the fermentation.
The milk was fermented with the strains of single or mixed cultures for 16 hours with an inoculation level of 1% (v/v). The total product was freeze-dried. A second fermentation, with the same conditions as the first one, was centrifuged. The pellet was discarded and the whey was filtered through a […] filter and frozen. The whey was used to solubilize the freeze-dried powder to concentrate it with a factor 5 before feeding the rats.
Spontaneously Hypertensive Rats (SHR) was obtained from IFFA CREDO (a Charles River company), Lyon, France. […]
Systolic blood pressure was determined by plethysmography in conscious SHR before as well as […] after gavages, at the different times described below. […]
Systolic blood pressure of Group 1 was determined parallel to those of groups 2 and 3 and serves as control.
The day of the gavage systolic blood pressure was determined before as well as 6 and 24 hours after gavage.

Q: Which results are given for CCOC(=O)[C@H](CCc1ccccc1)N[C@@H](C)C(=O)N1CCC[C@H]1C(=O)O [Enalapril]?
A: variation of systolic blood pressure (5 hours after administration): −30; variation of systolic blood pressure (24 hours after administration): −17

Reference: patent US7491507B2, “Process for preparing peptides with anti-hypertensive properties” (Chr. Hansen A/S, priority 2002, dated 2009)
